What was measured:
Type in all cases: functional
A549 = assay: Cytotoxicity against human lung carcinoma A549 cell line
B16-F10 = assay: Cytotoxicity against mouse melanoma B16F10 cell line
HT-29 = assay: Cytotoxicity against human colon adenocarcinoma HT-29 cell line
P388 = assay: Cytotoxicity against mouse lymphocytic leukemia P388 cell line
[1] = ED50 compared to that of taxol.

SMILES	Cytotoxicity (A549)	Cytotoxicity (B16-F10)	Cytotoxicity (HT-29)	Cytotoxicity (P388)	Ratio [1]
CC(=O)O[C@@H]1C2=C(C)[C@@H](OC(=O)[C@H](O)[C@@H](NC(=O)c3ccccc3)c3ccccc3)C[C@@](O)([C@@H](OC(=O)c3ccccc3)[C@@H]3[C@]4(OC(C)=O)CO[C@@H]4C[C@H](OCC(O)CO)[C@@]3(C)[C@H]1O)C2(C)C (some centres undefined)	626 ng/mL	>1000 ng/mL	310 ng/mL	>1000 ng/mL	2.02
CO[C@H]1[C@H](OC(C)=O)C2=C(C)[C@@H](OC(=O)[C@H](O)[C@@H](NC(=O)OC(C)(C)C)c3ccccc3)C[C@@](O)([C@@H](OC(=O)c3ccccc3)[C@@H]3[C@]4(OC(C)=O)CO[C@@H]4C[C@H](O)[C@]31C)C2(C)C	0.1 ng/mL	0.9 ng/mL	0.5 ng/mL	1.3 ng/mL	0.51
CCN(CC)CCO[C@H]1C[C@H]2OC[C@@]2(OC(C)=O)[C@H]2[C@H](OC(=O)c3ccccc3)[C@]3(O)C[C@H](OC(=O)[C@H](O)[C@@H](NC(=O)c4ccccc4)c4ccccc4)C(C)=C([C@@H](OC(C)=O)[C@H](O)[C@]12C)C3(C)C	400 ng/mL	110 ng/mL	108 ng/mL	310 ng/mL	2.61
CO[C@H]1[C@H](OC(C)=O)C2=C(C)[C@@H](OC(=O)[C@H](O)[C@@H](NC(=O)c3ccccc3)c3ccccc3)C[C@@](O)([C@@H](OC(=O)c3ccccc3)[C@@H]3[C@]4(OC(C)=O)CO[C@@H]4C[C@H](O)[C@]31C)C2(C)C	4.7 ng/mL	4.8 ng/mL	3.1 ng/mL	7.8 ng/mL	1.74
CC(=O)O[C@@H]1C2=C(C)[C@@H](OC(=O)[C@H](O)[C@@H](NC(=O)c3ccccc3)c3ccccc3)C[C@@](O)([C@@H](OC(=O)c3ccccc3)[C@@H]3[C@]4(OC(C)=O)CO[C@@H]4C[C@@H]4OC(=S)O[C@@H]1[C@]43C)C2(C)C	19 ng/mL	20 ng/mL	11 ng/mL	35 ng/mL	2.78
CCC1O[C@H]2C[C@H]3OC[C@@]3(OC(C)=O)[C@H]3[C@H](OC(=O)c4ccccc4)[C@]4(O)C[C@H](OC(=O)[C@H](O)[C@@H](NC(=O)c5ccccc5)c5ccccc5)C(C)=C([C@@H](OC(C)=O)[C@H](O1)[C@]23C)C4(C)C (some centres undefined)	23 ng/mL	15 ng/mL	16 ng/mL	22 ng/mL	–
CC(=O)O[C@@]12CO[C@@H]1C[C@H](O)[C@]1(C)[C@@H]2[C@H](OC(=O)c2ccccc2)[C@]2(O)C[C@H](OC(=O)[C@H](O)[C@@H](NC(=O)OC(C)(C)C)c3ccccc3)C(C)=C([C@@H](O)[C@@H]1O)C2(C)C	0.26 ng/mL	0.4 ng/mL	0.65 ng/mL	2.8 ng/mL	1.31
CO[C@H]1C[C@H]2OC[C@@]2(OC(C)=O)[C@H]2[C@H](OC(=O)c3ccccc3)[C@]3(O)C[C@H](OC(=O)[C@H](O)[C@@H](NC(=O)OC(C)(C)C)c4ccccc4)C(C)=C([C@@H](OC(C)=O)[C@H](O)[C@]12C)C3(C)C	0.27 ng/mL	0.2 ng/mL	0.15 ng/mL	0.6 ng/mL	0.35
CC(=O)O[C@@H]1C2=C(C)[C@@H](OC(=O)[C@H](O)[C@@H](NC(=O)c3ccccc3)c3ccccc3)C[C@@](O)([C@@H](OC(=O)c3ccccc3)[C@@H]3[C@]4(OC(C)=O)CO[C@@H]4C[C@@H]4OC(C)(C)O[C@@H]1[C@]43C)C2(C)C	34 ng/mL	34 ng/mL	29 ng/mL	42 ng/mL	0.76
CC(=O)O[C@@H]1C2=C(C)[C@@H](OC(=O)[C@H](O)[C@@H](NC(=O)c3ccccc3)c3ccccc3)C[C@@](O)([C@@H](OC(=O)c3ccccc3)[C@@H]3[C@]4(OC(C)=O)CO[C@@H]4C[C@H](O)[C@@]3(C)[C@H]1O)C2(C)C (stereo in doubt; 2) [listing 1 of 2 here]	–	–	–	–	0.75
CO[C@H]1C[C@H]2OC[C@@]2(OC(C)=O)[C@H]2[C@H](OC(=O)c3ccccc3)[C@]3(O)C[C@H](OC(=O)[C@H](O)[C@@H](NC(=O)c4ccccc4)c4ccccc4)C(C)=C([C@@H](OC(C)=O)[C@H](O)[C@]12C)C3(C)C	1.2 ng/mL	1.5 ng/mL	1.4 ng/mL	3.9 ng/mL	0.92
CC(=O)OCCO[C@H]1C[C@H]2OC[C@@]2(OC(C)=O)[C@H]2[C@H](OC(=O)c3ccccc3)[C@]3(O)C[C@H](OC(=O)[C@H](O)[C@@H](NC(=O)c4ccccc4)c4ccccc4)C(C)=C([C@@H](OC(C)=O)[C@H](O)[C@]12C)C3(C)C	120 ng/mL	43 ng/mL	31 ng/mL	79 ng/mL	2.47
CC(=O)O[C@@H]1C2=C(C)[C@@H](OC(=O)[C@H](O)[C@@H](NC(=O)c3ccccc3)c3ccccc3)C[C@@](O)([C@@H](OC(=O)c3ccccc3)[C@@H]3[C@]4(OC(C)=O)CO[C@@H]4C[C@H](OCCO)[C@@]3(C)[C@H]1O)C2(C)C	39 ng/mL	119 ng/mL	10 ng/mL	170 ng/mL	1.77
CC(=O)O[C@@H]1C2=C(C)[C@@H](OC(=O)[C@H](O)[C@@H](NC(=O)c3ccccc3)c3ccccc3)C[C@@](O)([C@@H](OC(=O)c3ccccc3)[C@@H]3[C@]4(OC(C)=O)CO[C@@H]4C[C@H](O)[C@@]3(C)[C@H]1O)C2(C)C (stereo in doubt; 14a) [listing 1 of 2 here]	11 ng/mL	39 ng/mL	1.9 ng/mL	140 ng/mL	–
CC(=O)O[C@@H]1C2=C(C)[C@@H](OC(=O)[C@H](O)[C@@H](NC(=O)c3ccccc3)c3ccccc3)C[C@@](O)([C@@H](OC(=O)c3ccccc3)[C@@H]3[C@]4(OC(C)=O)CO[C@@H]4C[C@H](O)[C@@]3(C)[C@H]1O)C2(C)C (stereo in doubt; 2) [listing 2 of 2 here]	22 ng/mL	25 ng/mL	9.6 ng/mL	57 ng/mL	–
C=CCO[C@H]1C[C@H]2OC[C@@]2(OC(C)=O)[C@H]2[C@H](OC(=O)c3ccccc3)[C@]3(O)C[C@H](OC(=O)[C@H](O)[C@@H](NC(=O)c4ccccc4)c4ccccc4)C(C)=C([C@@H](OC(C)=O)[C@H](O)[C@]12C)C3(C)C	1 ng/mL	2.7 ng/mL	1.2 ng/mL	5.3 ng/mL	1.4
CC(=O)O[C@@H]1C2=C(C)[C@@H](OC(=O)[C@H](O)[C@@H](NC(=O)c3ccccc3)c3ccccc3)C[C@@](O)([C@@H](OC(=O)c3ccccc3)[C@@H]3[C@]4(O)CO[C@@H]4C[C@H](O)[C@@]3(C)[C@H]1O)C2(C)C	>1000 ng/mL	>1000 ng/mL	>1000 ng/mL	>1000 ng/mL	> 10
CC(=O)O[C@@H]1C2=C(C)[C@@H](OC(=O)[C@H](O)[C@@H](NC(=O)c3ccccc3)c3ccccc3)C[C@@](O)([C@@H](OC(=O)c3ccccc3)[C@@H]3[C@]4(OC(C)=O)CO[C@@H]4C[C@H](O)[C@@]3(C)[C@H]1O)C2(C)C (stereo in doubt; 14a) [listing 2 of 2 here]	–	–	–	–	0.83
CC(=O)O[C@H]1C(=O)[C@@]2(C)[C@H]([C@H](OC(=O)c3ccccc3)[C@]3(O)C[C@H](OC(=O)[C@H](O)[C@@H](NC(=O)c4ccccc4)c4ccccc4)C(C)=C1C3(C)C)[C@]1(OC(C)=O)CO[C@@H]1C[C@@H]2O [PACLITAXEL]	4.3 ng/mL	6.3 ng/mL	3.5 ng/mL	11 ng/mL	1
CC(=O)O[C@@H]1C2=C(C)[C@@H](OC(=O)[C@H](O)[C@@H](NC(=O)c3ccccc3)c3ccccc3)C[C@@](O)([C@@H](OC(=O)c3ccccc3)[C@@H]3[C@]4(OC(C)=O)CO[C@@H]4C[C@H](OC(C)=O)[C@@]3(C)[C@H]1OC(C)=O)C2(C)C	15 ng/mL	13 ng/mL	3.3 ng/mL	22 ng/mL	0.91

— ChEMBL document CHEMBL1128309, “Antitumor activity of 9(R)-dihydrotaxane analogs” (1995)
